Assays:
Format in all cases: functional
Prescottella equi [1] = assay: The compound was tested in vitro for antimicrobial activity against gram-positive bacteria Corynebacterium equi (IFO 3720) by conventional paper disk; 7-8
Bacillus cereus = assay: The compound was tested in vitro for antimicrobial activity against gram-positive bacteria Bacillus cereus (ATCC 14579) by conventional paper disk; 7-8
Streptomyces chartreusis [2] = assay: The compound was tested in vitro for antimicrobial activity against […] bacteria Streptomyces chartreusis (NRRL 11407) by conventional paper disk; 7-8
Prescottella equi [3] = assay: The compound was tested in vitro for antimicrobial activity against gram-positive bacteria Corynebacterium equi (IFO 3720) by conventional paper disk; 9-10
Streptomyces chartreusis [4] = assay: The compound was tested in vitro for antimicrobial activity against […] bacteria Streptomyces chartreusis (NRRL 11407) by conventional paper disk; 9-10
Enterococcus faecalis = assay: The compound was tested in vitro for antimicrobial activity against gram-positive bacteria Enterococcus faecalis (ATCC 11700) by conventional paper disk; 7-8

**Q.** Which results are given for `O=c1oc(-c2c[nH]c3ccccc23)c(-c2c[nH]c3ccccc23)n1Cc1ccccc1`?
**A.** Inhibition zone (Prescottella equi [1]): 7 mm; Inhibition zone (Bacillus cereus): 7 mm; Inhibition zone (Streptomyces chartreusis [2]): 7 mm

**Q.** For `C=CCn1c(-c2c[nH]c3ccccc23)c(-c2c[nH]c3ccccc23)oc1=O`, which Inhibition zone (Prescottella equi [3]) is on record?
**A.** The Inhibition zone was 9 mm.

**Q.** What about the Inhibition zone (Bacillus cereus) of the same compound?
**A.** The Inhibition zone was 7 mm.

**Q.** What about the Inhibition zone (Streptomyces chartreusis [4]) of the same compound?
**A.** Its Inhibition zone is 9 mm.

**Q.** `C[C@H](C(=O)O)n1c(-c2c[nH]c3ccccc23)c(-c2c[nH]c3ccccc23)oc1=O` was tested. Which Inhibition zone (Prescottella equi [1]) did it give?
**A.** Its Inhibition zone is 7 mm.

**Q.** And the Inhibition zone (Bacillus cereus)?
**A.** The Inhibition zone was 7 mm.

**Q.** What about the Inhibition zone (Streptomyces chartreusis [4]) of the same compound?
**A.** The Inhibition zone was 9 mm.

**Q.** What about the Inhibition zone (Enterococcus faecalis) of the same compound?
**A.** The Inhibition zone was 7 mm.

**Q.** Which results are given for `CCCn1c(-c2c[nH]c3ccccc23)c(-c2c[nH]c3ccccc23)oc1=O`?
**A.** Inhibition zone (Prescottella equi [1]): 7 mm; Inhibition zone (Bacillus cereus): 7 mm; Inhibition zone (Streptomyces chartreusis [4]): 9 mm
